Reference: patent US11718618B2, “Substituted pyrido[2,1-a]isoquinolines as VMAT2 inhibitors” (priority 2021, dated 2023)

Experiments:
human VMAT2 = human VMAT2 (Homo sapiens (Human), UniProt Q05940); test: VMAT2 radioligand binding, 3H-dihydrotetrabenazine competition on human platelet homogenate; settings: 10 nM 3H-dihydrotetrabenazine, human platelet homogenate, 25° C., 90 minutes; read-out: VMAT2 Ki
Procedure: Examples of techniques for determining the capability of a compound to inhibit VMAT2 are provided below. The procedure was adapted from that described previously (see, e.g., Near, (1986), Mol. Pharmacol. 30: 252-57; Teng, et al., J. Neurochem. 71, 258-65, 1998). Homogenates from human platelets were prepared by homogenization and then washed by centrifugation as described previously (see, e.g., Hoare et al., (2003) Peptides 24:1881-97).
The human VMAT2 Ki values for the compounds listed in Table 15A and Table 15B were determined using the following procedures. Compound dilution series in DMSO were generated from either powder stocks by hand, or from DMSO stocks using serial dilution on a Vantage (Hamilton), or direct dilution using an Echo 655 (Beckman). In a total volume of 0.145 to 0.150 mL in low-binding 96-well plates (Corning #3605), twelve concentrations of test compound were competed against 10 nM ^3H-dihydrotetrabenezine (American Radiolabeled Chemicals) on human platelet homogenate (30 μg membrane protein per well) in VMAT2 binding buffer (Dulbecco's phosphate buffered saline, 1 mM EDTA, pH 7.4). Following incubation at 25° C. for 90 minutes, bound radioligand was collected by rapid filtration onto either GF/B or GF/C glass fiber filters, pretreated with 0.100 polyethylenimine, using either a Unifilter-96 Harvester (PerkinElmer) or Microlab Star (Hamilton). Following harvesting the filter plates were washed with 0.8 mL VMAT2 binding buffer, and bound radioligand was quantified by scintillation counting using a Topcount NXT or Microplate Counter Microbeta (PerkinElmer).

[1] = Stability of compounds in human liver microsomes; format: in vitro ADME; settings: for CLint scaled at 0.5 μM / half-life at 0.5 μM: both sexes, pH 7.4; for CLint scaled at 0.5 μM: liver microsomes, calculated from HLM half-life, read-out: HLM Scaled Intrinsic Clearance; for CLint scaled at 0.5 μM / Predicted Max. Bioavailability (% F) / HLM Predicted Systemic Clearance: human; for half-life at 0.5 μM: 0.5 μM compound, 0.5 mg/mL human liver microsomes, 37° C., maxed at 420 minutes, read-out: HLM Elimination half-life (t1/2, min); for Predicted Max. Bioavailability (% F): predicted from HLM data; for HLM Predicted Systemic Clearance: scaled from HLM half-life (Obach method)
Procedure: A test compound (0.5 μM) was incubated with pooled mixed gender liver microsomes from humans (0.5 mg/mL total protein) at 37° C. in the presence of an NADPH-generating system containing 50 mM, pH 7.4 potassium phosphate buffer, 3 mM magnesium chloride, 1 mM EDTA, 1 mM NADP, 5 mM glusose-6-phosphate, and 1 Unit/mL glucose-6-phosphate dehydrogenase. All concentrations were relative to the final incubation volume of 125 μL. Incubations were conducted at 37° C. for 0, 5, 10, 20, 40, and 60 minutes in a water bath and terminated by rapid mixing with 150 μL of ice-cold acetonitrile containing internal standard. Precipitated proteins were removed by centrifugation prior to LC-MS/MS analysis. Aliquots of the resulting supernatant fractions were analyzed by LC-MS/MS monitoring for depletion of parent compound. The resultant peak area ratio versus time data was fitted to a non-linear regression using XLfit Scientific Curve Fitting Software (IDBS Ltd., Surrey, UK) and the elimination half-life (t1/2, min) was calculated from the slope. […] Additional values calculated included predicted extraction ratio and predicted maximum bioavailability.

Chain of human VMAT2 (Q05940 whole entry): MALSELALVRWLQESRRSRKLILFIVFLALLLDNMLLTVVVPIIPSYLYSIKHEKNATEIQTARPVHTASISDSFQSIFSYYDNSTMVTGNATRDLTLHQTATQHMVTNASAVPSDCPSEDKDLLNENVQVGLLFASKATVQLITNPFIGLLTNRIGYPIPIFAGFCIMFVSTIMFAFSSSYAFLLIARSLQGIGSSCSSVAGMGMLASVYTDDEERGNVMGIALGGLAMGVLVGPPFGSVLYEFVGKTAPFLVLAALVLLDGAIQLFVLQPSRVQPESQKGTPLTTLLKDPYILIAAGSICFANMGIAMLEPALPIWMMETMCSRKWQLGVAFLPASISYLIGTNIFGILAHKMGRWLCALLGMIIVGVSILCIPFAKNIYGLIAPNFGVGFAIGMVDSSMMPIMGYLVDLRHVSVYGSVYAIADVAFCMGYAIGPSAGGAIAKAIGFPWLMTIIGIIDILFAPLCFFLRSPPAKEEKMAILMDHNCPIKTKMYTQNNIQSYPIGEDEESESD

SMILES	Ki (human VMAT2)	CLint scaled at 0.5 μM [1]	half-life at 0.5 μM [1]	Predicted Max. Bioavailability (% F) [1]	HLM Predicted Systemic Clearance [1]
COc1cc2c(cc1OCCCCC(F)(F)F)CCN1C[C@@H](CC(C)(C)C)[C@H](O)C[C@H]21 [Compound 4-115, (2R,3R,11bR)-3-(2,2-dimethylpropyl)-10-methoxy-9-[(5,5,5-trifluoropentyl)oxy]-1H,2H,3H,4H,6H,7H,11bH-pyrido[2,1-a]isoquinolin-2-ol]	6.1 nM	9.38 mL/min/kg	133 min	68 % F	6.39 mL/min/kg
COc1cc2c(cc1OCC1COC1)CCN1C[C@@H](CC(C)(C)C)[C@H](O)C[C@H]21 [Compound 4-22, (2R,3R,11bR)-3-(2,2-dimethylpropyl)-10-methoxy-9-(oxetan-3-ylmethoxy)-1H,2H,3H,4H,6H,7H,11bH-pyrido[2,1-a]isoquinolin-2-ol]	14 nM	9.6 mL/min/kg	130 min	68 % F	6.49 mL/min/kg
COc1cc2c(cc1OC[C@H](C)O)CCN1C[C@@H](CC(C)(C)C)[C@H](O)C[C@H]21 [Compound 4-114, (2R,3R,11bR)-3-(2,2-dimethylpropyl)-9-[(2S)-2-hydroxypropoxy]-10-methoxy-1H,2H,3H,4H,6H,7H,11bH-pyrido[2,1-a]isoquinolin-2-ol]	70 nM	≤ 2.97 mL/min/kg	≥ 420 min	≥87 % F	≤2.59 mL/min/kg
COc1cc2c(cc1OCC(O)C(F)F)CCN1C[C@@H](CC(C)(C)C)[C@H](O)C[C@H]21 (stereo partly drawn) [Compound 4-51, (2R,3R,11bR)-9-(3,3-difluoro-2-hydroxypropoxy)-3-(2,2-dimethylpropyl)-10-methoxy-1H,2H,3H,4H,6H,7H,11bH-pyrido[2,1-a]isoquinolin-2-ol]	9.4 nM	≤ 2.97 mL/min/kg	≥ 420 min	≥87 % F	≤2.59 mL/min/kg
COc1cc2c(cc1OCc1ccc(F)cc1)CCN1C[C@@H](CC(C)(C)C)[C@H](O)C[C@H]21 [Compound 4-63, (2R,3R,11bR)-3-(2,2-dimethylpropyl)-9-[(4-fluorophenyl)methoxy]-10-methoxy-1H,2H,3H,4H,6H,7H,11bH-pyrido[2,1-a]isoquinolin-2-ol]	4.2 nM	42.3 mL/min/kg	29 min	32 % F	13.58 mL/min/kg
COc1cc2c(cc1OCC(C)(C)O)CCN1C[C@@H](CC(C)(C)C)[C@H](O)C[C@H]21 [Compound 4-47, (2R,3R,11bR)-3-(2,2-dimethylpropyl)-9-(2-hydroxy-2-methylpropoxy)-10-methoxy-1H,2H,3H,4H,6H,7H,11bH-pyrido[2,1-a]isoquinolin-2-ol]	15 nM	≤ 2.97 mL/min/kg	≥ 420 min	≥87 % F	≤2.59 mL/min/kg
COc1cc2c(cc1OCC1CC1)CCN1C[C@@H](CC(C)(C)C)[C@H](O)C[C@H]21 [Compound 4-88, (2R,3R,11bR)-9-(cyclopropylmethoxy)-3-(2,2-dimethylpropyl)-10-methoxy-1H,2H,3H,4H,6H,7H,11bH-pyrido[2,1-a]isoquinolin-2-ol]	0.68 nM	28.1 mL/min/kg	44 min	42 % F	11.68 mL/min/kg
COc1cc2c(cc1OCC(O)CC(F)(F)F)CCN1C[C@@H](CC(C)(C)C)[C@H](O)C[C@H]21 (stereo partly drawn) [Compound 4-62, (2R,3R,11bR)-3-(2,2-dimethylpropyl)-10-methoxy-9-(4,4,4-trifluoro-2-hydroxybutoxy)-1H,2H,3H,4H,6H,7H,11bH-pyrido[2,1-a]isoquinolin-2-ol]	3.7 nM	≤ 2.97 mL/min/kg	≥ 420 min	≥87 % F	≤2.59 mL/min/kg
COc1cc2c(cc1OCC1CCN(C#N)CC1)CCN1C[C@@H](CC(C)(C)C)[C@H](O)C[C@H]21 [Compound 4-73]	51 nM	10.5 mL/min/kg	119 min	66 % F	6.88 mL/min/kg
COc1cc2c(cc1OC[C@H](C)OC)CCN1C[C@@H](CC(C)(C)C)[C@H](O)C[C@H]21 [Compound 4-92, (2R,3R,11bR)-3-(2,2-dimethylpropyl)-10-methoxy-9-[(2S)-2-methoxypropoxy]-1H,2H,3H,4H,6H,7H,11bH-pyrido[2,1-a]isoquinolin-2-ol]	51 nM	25.5 mL/min/kg	49 min	44 % F	11.2 mL/min/kg
COc1cc2c(cc1OCc1ccon1)CCN1C[C@@H](CC(C)(C)C)[C@H](O)C[C@H]21 [Compound 4-69, (2R,3R,11bR)-3-(2,2-dimethylpropyl)-10-methoxy-9-(1,2-oxazol-3-ylmethoxy)-1H,2H,3H,4H,6H,7H,11bH-pyrido[2,1-a]isoquinolin-2-ol]	32 nM	15.5 mL/min/kg	80 min	56 % F	8.74 mL/min/kg
COc1cc2c(cc1OCCC(F)(F)F)CCN1C[C@H](CC(C)(C)C)[C@@H](O)C[C@@H]21 [Compound 4-9, (2S,3S,11bS)-3-(2,2-dimethylpropyl)-10-methoxy-9-(3,3,3-trifluoropropoxy)-1H,2H,3H,4H,6H,7H,11bH-pyrido[2,1-a]isoquinolin-2-ol]	277 nM	≤ 2.97 mL/min/kg	≥ 420 min	≥87 % F	≤2.59 mL/min/kg
COc1cc2c(cc1OCCc1ccc(C(F)(F)F)cc1)CCN1C[C@@H](CC(C)(C)C)[C@H](O)C[C@H]21 [Compound 4-74, (2R,3R,11bR)-3-(2,2-dimethylpropyl)-10-methoxy-9-{2-[4-(trifluoromethyl)phenyl]ethoxy}-1H,2H,3H,4H,6H,7H,11bH-pyrido[2,1-a]isoquinolin-2-ol]	65 nM	34.6 mL/min/kg	36 min	37 % F	12.68 mL/min/kg
CNC(=O)COc1cc2c(cc1OC)[C@H]1C[C@@H](O)[C@H](CC(C)(C)C)CN1CC2 [Compound 4-35, 2-{[(2R,3R,11bR)-3-(2,2-dimethylpropyl)-2-hydroxy-10-methoxy-1H,2H,3H,4H,6H,7H,11bH-pyrido[2,1-a]isoquinolin-9-yl]oxy}-N-methylacetamide]	> 10000 nM				
COc1cc2c(cc1OCC1(S(C)(=O)=O)CC1)CCN1C[C@@H](CC(C)(C)C)[C@H](O)C[C@H]21 [Compound 4-96, (2R,3R,11bR)-3-(2,2-dimethylpropyl)-9-[(1-methanesulfonylcyclo-propyl)methoxy]-10-methoxy-1H,2H,3H,4H,6H,7H,11bH-pyrido[2,1-a]isoquinolin-2-ol]	> 10000 nM				
COc1cc2c(cc1OCC(F)F)CCN1C[C@H](CC(C)(C)C)[C@H](O)C[C@@H]21 [Compound 4-2, (2R,3S,11bS)-9-(2,2-difluoroethoxy)-3-(2,2-dimethylpropyl)-10-methoxy-1H,2H,3H,4H,6H,7H,11bH-pyrido[2,1-a]isoquinolin-2-ol]	467 nM				
COc1cc2c(cc1OCc1ccc(C#N)cn1)CCN1C[C@@H](CC(C)(C)C)[C@H](O)C[C@H]21 [Compound 4-82, 6-({[(2R,3R,11bR)-3-(2,2-dimethylpropyl)-2-hydroxy-10-methoxy-1H,2H,3H,4H,6H,7H,11bH-pyrido[2,1-a]isoquinolin-9-yl]oxy}methyl)pyridine-3-carbonitrile]	198 nM				
COc1cc2c(cc1OCCn1ccnc1)CCN1C[C@@H](CC(C)(C)C)[C@H](O)C[C@H]21 [Compound 4-34, (2R,3R,11bR)-3-(2,2-dimethylpropyl)-9-[2-(1H-imidazol-1-yl)ethoxy]-10-methoxy-1H,2H,3H,4H,6H,7H,11bH-pyrido[2,1-a]isoquinolin-2-ol]	> 10000 nM				
